target: T1, human TPH1 (Homo sapiens, UniProt P17752); experiment: biochemical
T1 sequence (P17752 1-444): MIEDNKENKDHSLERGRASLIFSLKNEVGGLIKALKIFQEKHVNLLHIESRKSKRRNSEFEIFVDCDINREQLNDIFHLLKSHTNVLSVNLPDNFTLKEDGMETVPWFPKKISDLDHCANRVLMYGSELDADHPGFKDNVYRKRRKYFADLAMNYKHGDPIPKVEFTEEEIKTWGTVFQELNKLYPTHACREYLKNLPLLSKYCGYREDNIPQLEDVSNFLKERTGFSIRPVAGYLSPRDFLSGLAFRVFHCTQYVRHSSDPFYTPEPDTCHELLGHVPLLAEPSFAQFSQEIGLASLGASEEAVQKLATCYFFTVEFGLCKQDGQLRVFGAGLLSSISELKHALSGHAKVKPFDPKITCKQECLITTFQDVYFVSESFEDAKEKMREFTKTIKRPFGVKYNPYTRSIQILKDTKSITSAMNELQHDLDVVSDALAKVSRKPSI
Outline: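 Inhibition is derived from 5-hydroxy-L-tryptophan fluorescence (540 nm emission, 300 nm excitation) after perchloric acid stop, relative to DMSO vehicle. Recombinant full-length human enzyme (40-80 nM) reacts with 40 μM tryptophan plus 100 μM methyltetrahydropterin, pH 7.6 Tris/DTT/catalase, 15° C, 60 min.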

| SMILES | IC50 |
| --- | --- |
| O=C(COc1ccc(N2CCOCC2)cc1Cl)N1CCc2nc3cc(Cl)ccn3c2[C@H]1c1cccnc1F [Example 2.2.2, 1-((1R)-7-chloro-1-(2-fluoropyridin-3-yl)-3,10a-dihydroimidazo[1,2-a:5,4-c′]dipyridin-2(1H)-yl)-2-(2-chloro-4-morpholinophenoxy)ethan-1-one] | 124 nM |
| COCCN(C)c1ccc(OCC(=O)N2CCc3nc4ccccn4c3C2c2ccc(Cl)cc2F)c(Cl)n1 (stereo not shown) [Example 1.4.8, 1-(1-(4-chloro-2-fluorophenyl)-3,4-dihydroimidazo[1,2-a:5,4-c′]dipyridin-2(1H)-yl)-2-((2-chloro-6-((2-methoxyethyl)(methyl)amino)pyridin-3-yl)oxy)ethan-1-one] | 39 nM |
| COc1ccc(C2c3c(nc4cc(Cl)ccn34)CCN2C(=O)COc2ccc(CO)cc2Cl)cc1OC (stereo not shown) [Example 2.1.3, 1-(7-chloro-1-(3,4-dimethoxyphenyl)-3,4-dihydroimidazo[1,2-a:5,4-c′]dipyridin-2(1H)-yl)-2-(2-chloro-4-(hydroxymethyl)phenoxy)ethan-1-one] | 402 nM |
| Cc1cc(C2c3c(nc4cc(C(F)(F)F)ccn34)CCN2C(=O)COc2ccc3ccccc3c2)no1 (stereo not shown) [Example 3.45.1, 1-(1-(5-methylisoxazol-3-yl)-7-(trifluoromethyl)-3,4-dihydroimidazo[1,2-a:5,4-c′]dipyridin-2(1H)-yl)-2-(naphthalen-2-yloxy)ethan-1-one] | 349 nM |
| COc1ncc(C2c3c(nc4cc(C(F)(F)F)ccn34)CCN2C(=O)COc2ccc(CN3CCOCC3)cc2Cl)cn1 (stereo not shown) [Example 3.55.2, 2-(2-chloro-4-(morpholinomethyl)phenoxy)-1-(1-(2-methoxypyrimidin-5-yl)-7-(trifluoromethyl)-3,4-dihydroimidazo[1,2-a:5,4-c′]dipyridin-2(1H)-yl)ethan-1-one] | 266 nM |
| COc1ccc(C2c3c(nc4cc(Cl)ccn34)CCN2C(=O)COc2ccc3ccccc3c2)cc1O (stereo not shown) [Example 2.8.1, 1-(7-chloro-1-(3-hydroxy-4-methoxyphenyl)-3,4-dihydroimidazo[1,2-a:5,4-c′]dipyridin-2(1H)-yl)-2-(naphthalen-2-yloxy)ethan-1-one] | 219 nM |
| COc1ccc(C2c3c(nc4cc(C(F)(F)F)ccn34)CCN2C(=O)COc2ccc(C(F)(F)F)cc2Cl)cc1OC (stereo not shown) [Example 3.1.3, 2-(2-chloro-4-(trifluoromethyl)phenoxy)-1-(1-(3,4-dimethoxyphenyl)-7-(trifluoromethyl)-3,4-dihydroimidazo[1,2-a:5,4-c′]dipyridin-2(1H)-yl)ethan-1-one] | 36 nM |
| Cn1nc(OCC(=O)N2CCc3nc4cc(C(F)(F)F)ccn4c3C2c2ccc(Cl)cc2F)c(Cl)c1C(F)(F)F (stereo not shown) [Example 3.4.3, 2-((4-chloro-1-methyl-5-(trifluoromethyl)-1H-pyrazol-3-yl)oxy)-1-(1-(4-chloro-2-fluorophenyl)-7-(trifluoromethyl)-3,4-dihydroimidazo[1,2-a:5,4-c′]dipyridin-2(1H)-yl)ethan-1-one] | 64 nM |
| COc1ccc(C2c3c(nc4cc(Cl)ccn34)CCN2C(=O)COc2ccc([N+](=O)[O-])cc2Cl)cc1OC (stereo not shown) [Example 2.1.4, 1-(7-chloro-1-(3,4-dimethoxyphenyl)-3,4-dihydroimidazo[1,2-a:5,4-c′]dipyridin-2(1H)-yl)-2-(2-chloro-4-nitrophenoxy)ethan-1-one] | 390 nM |
| CC(C)(O)c1ccc(C2c3c(nc4ccccn34)CCN2C(=O)COc2ccc(C(=O)NC3CC3)nc2Cl)c(F)c1 (stereo not shown) [Example 1.16.1, 6-chloro-N-cyclopropyl-5-(2-(1-(2-fluoro-4-(2-hydroxypropan-2-yl)phenyl)-3,4-dihydroimidazo[1,2-a:5,4-c′]dipyridin-2(1H)-yl)-2-oxoethoxy)picolinamide] | 244 nM |
| CS(=O)(=O)Nc1ccc(OCC(=O)N2CCc3nc4cccnn4c3C2c2ccc(Cl)cc2F)c(Cl)n1 (stereo not shown) [Example 16.4.1, N-(6-chloro-5-(2-(9-(4-chloro-2-fluorophenyl)-6,9-dihydropyrido[4′,3′:4,5]imidazo[1,2-b]pyridazin-8(7H)-yl)-2-oxoethoxy)pyridin-2-yl)methanesulfonamide] | 167 nM |
| COc1ccc(C2c3c(nc4cc(C(F)(F)F)ccn34)CCN2C(=O)COc2cccnc2C2CC2)cc1OC (stereo not shown) [Example 3.1.35] | 336 nM |
| Cc1csc(C2c3c(nc4cc(C(F)(F)F)ccn34)CCN2C(=O)COc2ccc(CN3CCOCC3)cc2Cl)n1 (stereo not shown) [Example 3.42.2, 2-(2-chloro-4-(morpholinomethyl)phenoxy)-1-(1-(4-methylthiazol-2-yl)-7-(trifluoromethyl)-3,4-dihydroimidazo[1,2-a:5,4-c′]dipyridin-2(1H)-yl)ethan-1-one] | 427 nM |
| O=C(COc1ccc2ccccc2c1)N1CCc2nc3cc(C(F)(F)F)ccn3c2C1c1cccnc1 (stereo not shown) [Example 3.36.1, 2-(naphthalen-2-yloxy)-1-(1-(pyridin-3-yl)-7-(trifluoromethyl)-3,4-dihydroimidazo[1,2-a:5,4-c′]dipyridin-2(1H)-yl)ethan-1-one] | 208 nM |
| Cc1ccc(C2c3c(nc4cc(Cl)ccn34)CCN2C(=O)COc2ccc(NS(C)(=O)=O)nc2Cl)c(F)c1 (stereo not shown) [Example 2.15.1, N-(6-chloro-5-(2-(7-chloro-1-(2-fluoro-4-methylphenyl)-3,4-dihydroimidazo[1,2-a:5,4-c′]dipyridin-2(1H)-yl)-2-oxoethoxy)pyridin-2-yl)methanesulfonamide] | 51 nM |
| CCc1nc(C)ccc1OCC(=O)N1CCc2nc3ccccn3c2C1c1ccc(Cl)cc1F (stereo not shown) [Example 1.4.6, 1-(1-(4-chloro-2-fluorophenyl)-3,4-dihydroimidazo[1,2-a:5,4-c′]dipyridin-2(1H)-yl)-2-((2-ethyl-6-methylpyridin-3-yl)oxy)ethan-1-one] | 78 nM |

Other lines, results leading:

| IC50 | SMILES |
| --- | --- |
| 35 nM | Cc1cc(C2c3c(nc4cc(C(F)(F)F)ccn34)CCN2C(=O)COc2ccc(CN3CCOCC3)cc2Cl)ccn1 (stereo not shown) [Example 3.57.2, 2-(2-chloro-4-(morpholinomethyl)phenoxy)-1-(1-(2-methylpyridin-4-yl)-7-(trifluoromethyl)-3,4-dihydroimidazo[1,2-a:5,4-c′]dipyridin-2(1H)-yl)ethan-1-one] |
| 9 nM | O=C(COc1ccc(N2CCOCC2)cc1Cl)N1CCc2nc3ccccn3c2C1c1ccc(C2CC2)cc1F (stereo not shown) [Example 1.5.1, 2-(2-chloro-4-morpholinophenoxy)-1-(1-(4-cyclopropyl-2-fluorophenyl)-3,4-dihydroimidazo[1,2-a:5,4-c′]dipyridin-2(1H)-yl)ethan-1-one] |
| 16 nM | O=C(COc1ccc(CN2CCOCC2)cc1Cl)N1CCc2nc3cc(C(F)(F)F)ccn3c2C1c1ccccc1F (stereo not shown) [Example 3.35.2, 2-(2-chloro-4-(morpholinomethyl)phenoxy)-1-(1-(2-fluorophenyl)-7-(trifluoromethyl)-3,4-dihydroimidazo[1,2-a:5,4-c′]dipyridin-2(1H)-yl)ethan-1-one] |
| 4 nM | COc1cc(F)c(C2c3c(nc4cc(C(F)(F)F)ccn34)CCN2C(=O)COc2ccc3c(c2)CN(C(=O)CO)CC3)cc1OC (stereo not shown) [Example 3.18.7, 1-(1-(2-fluoro-4,5-dimethoxyphenyl)-7-(trifluoromethyl)-3,4-dihydroimidazo[1,2-a:5,4-c′]dipyridin-2(1H)-yl)-2-((2-(2-hydroxyacetyl)-1,2,3,4-tetrahydroisoquinolin-7-yl)oxy)ethan-1-one] |
| 11 nM | COc1ccc(C2c3c(nc4cc(C(F)(F)F)ccn34)CCN2C(=O)COc2ccc3c(c2C)CCN(C(C)=O)C3)c(F)c1 (stereo not shown) [Example 3.3.6, 2-((2-acetyl-5-methyl-1,2,3,4-tetrahydroisoquinolin-6-yl)oxy)-1-(1-(2-fluoro-4-methoxyphenyl)-7-(trifluoromethyl)-3,4-dihydroimidazo[1,2-a:5,4-c′]dipyridin-2(1H)-yl)ethan-1-one] |
| 33 nM | Cc1ccc(C2c3c(nc4cc(C(F)(F)F)ccn34)CCN2C(=O)COc2ccc3ccccc3c2)cc1C (stereo not shown) [Example 3.10.1, 1-(1-(3,4-dimethylphenyl)-7-(trifluoromethyl)-3,4-dihydroimidazo[1,2-a:5,4-c′]dipyridin-2(1H)-yl)-2-(naphthalen-2-yloxy)ethan-1-one] |
| 8 nM | O=C(COc1ccc(N2CCOCC2)nc1Cl)N1CCc2nc3ccccn3c2C1c1ccc(C2CC2)nc1F (stereo not shown) [Example 1.13.1, 2-((2-chloro-6-morpholinopyridin-3-yl)oxy)-1-(1-(6-cyclopropyl-2-fluoropyridin-3-yl)-3,4-dihydroimidazo[1,2-a:5,4-c′]dipyridin-2(1H)-yl)ethan-1-one] |
| 13 nM | COc1cc(F)c(C2c3c(nc4cc(C(F)(F)F)ccn34)CCN2C(=O)COc2ccc3c(c2)CN(C)CC3)cc1OC (stereo not shown) [Example 3.18.5, 1-(1-(2-fluoro-4,5-dimethoxyphenyl)-7-(trifluoromethyl)-3,4-dihydroimidazo[1,2-a:5,4-c′]dipyridin-2(1H)-yl)-2-((2-methyl-1,2,3,4-tetrahydroisoquinolin-7-yl)oxy)ethan-1-one] |
| 30 nM | COc1ccc(C2c3c(nc4cc(Cl)ccn34)CCN2C(=O)COc2ccc3ccccc3c2)cc1OC[C@@H](O)CO (stereo partly drawn) [Example 2.9.1, 1-(7-chloro-1-(3-((S)-2,3-dihydroxypropoxy)-4-methoxyphenyl)-3,4-dihydroimidazo[1,2-a:5,4-c′]dipyridin-2(1H)-yl)-2-(naphthalen-2-yloxy)ethan-1-one] |

From patent US20180155344A1, “TRICYCLIC PIPERIDINE COMPOUNDS” (ACTELION PHARMACEUTICALS LTD, priority 2015, published 2018)
